Measurements published in the supplement of paper PMC7796163.
± gives the uncertainty stated by the source.

Experiments:
Test in all cases: CYP enzyme activity (probe substrate metabolite formation) fold change vs solvent control; higher = stronger induction of CYP activity
Settings in all cases: HepaRG
CYP2B6 = molecular target: T1, CYP2B6 (UniProt P20813)
T1 sequence (whole entry): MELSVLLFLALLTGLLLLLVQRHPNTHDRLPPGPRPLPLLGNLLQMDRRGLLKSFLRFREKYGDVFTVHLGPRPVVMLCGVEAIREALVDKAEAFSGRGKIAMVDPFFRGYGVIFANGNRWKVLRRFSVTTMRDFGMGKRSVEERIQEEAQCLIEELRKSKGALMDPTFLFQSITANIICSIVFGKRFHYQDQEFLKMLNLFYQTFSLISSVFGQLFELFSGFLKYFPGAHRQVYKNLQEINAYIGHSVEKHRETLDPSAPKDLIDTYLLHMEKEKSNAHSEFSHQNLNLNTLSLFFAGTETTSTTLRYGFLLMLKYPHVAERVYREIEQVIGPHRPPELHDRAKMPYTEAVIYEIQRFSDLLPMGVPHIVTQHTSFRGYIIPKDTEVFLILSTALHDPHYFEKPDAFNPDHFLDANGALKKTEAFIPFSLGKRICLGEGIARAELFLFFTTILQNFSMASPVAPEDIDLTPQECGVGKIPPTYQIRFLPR
Method: (§1)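 Differentiated HepaRG cells were treated with 1, 5 or 10 µM of each PAH (0.5% DMSO) for 12, 24 or 48 h, then incubated for 3 h at 37 °C with a cocktail of isoform-specific CYP substrates (phenacetin for CYP1A2, bupropion for CYP2B6, amodiaquine for CYP2C8, tolbutamide for CYP2C9, mephenytoin for CYP2C19, propafenone for CYP2D6, atorvastatin for CYP3A4). Metabolite formation was quantified by LC-MS as a measure of CYP activity and reported as fold change over solvent control (mean ± SD, n=3). Values below the LLOQ were set to half the LLOQ.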

CYP1A2 = molecular target: T2, CYP1A2 (UniProt P05177)
T2 sequence (whole entry): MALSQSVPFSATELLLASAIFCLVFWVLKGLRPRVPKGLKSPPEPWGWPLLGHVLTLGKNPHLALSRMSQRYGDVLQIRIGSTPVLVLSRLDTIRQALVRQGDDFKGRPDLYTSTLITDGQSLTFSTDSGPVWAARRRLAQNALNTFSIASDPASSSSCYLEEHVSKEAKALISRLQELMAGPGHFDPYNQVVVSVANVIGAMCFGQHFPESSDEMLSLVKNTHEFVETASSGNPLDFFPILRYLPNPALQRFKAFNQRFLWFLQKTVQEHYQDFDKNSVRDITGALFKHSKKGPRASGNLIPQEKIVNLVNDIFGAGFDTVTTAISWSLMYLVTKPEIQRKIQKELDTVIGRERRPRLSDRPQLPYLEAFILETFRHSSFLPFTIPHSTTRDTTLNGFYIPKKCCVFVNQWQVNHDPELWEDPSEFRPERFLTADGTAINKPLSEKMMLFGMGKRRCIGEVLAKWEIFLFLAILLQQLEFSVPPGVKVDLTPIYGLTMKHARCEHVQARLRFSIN
Method: as §1

CYP2D6 = CYP2D6 (UniProt P10635)
Method: as §1

CYP2C8 = molecular target: T3, CYP2C8 (UniProt P10632)
T3 sequence (whole entry): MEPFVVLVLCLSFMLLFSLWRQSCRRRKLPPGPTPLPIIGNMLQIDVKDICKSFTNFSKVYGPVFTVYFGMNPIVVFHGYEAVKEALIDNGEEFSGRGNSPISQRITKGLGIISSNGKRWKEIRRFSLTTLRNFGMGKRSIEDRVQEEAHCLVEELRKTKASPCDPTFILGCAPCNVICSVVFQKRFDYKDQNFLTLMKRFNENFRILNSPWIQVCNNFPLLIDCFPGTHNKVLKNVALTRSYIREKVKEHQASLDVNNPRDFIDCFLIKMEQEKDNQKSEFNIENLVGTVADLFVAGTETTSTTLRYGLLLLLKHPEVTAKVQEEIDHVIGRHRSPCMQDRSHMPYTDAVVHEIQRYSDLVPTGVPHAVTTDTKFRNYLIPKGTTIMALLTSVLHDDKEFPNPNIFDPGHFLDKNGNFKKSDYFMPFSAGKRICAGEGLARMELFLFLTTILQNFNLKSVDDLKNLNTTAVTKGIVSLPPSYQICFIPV
Method: as §1

CYP3A4 = CYP3A4 (UniProt P08684)
Method: as §1

CYP2C19 = CYP2C19 (UniProt P33261)
Method: as §1

CYP2C9 = CYP2C9 (UniProt P11712)
Method: as §1

Chain of CYP2C9 (P11712 whole entry): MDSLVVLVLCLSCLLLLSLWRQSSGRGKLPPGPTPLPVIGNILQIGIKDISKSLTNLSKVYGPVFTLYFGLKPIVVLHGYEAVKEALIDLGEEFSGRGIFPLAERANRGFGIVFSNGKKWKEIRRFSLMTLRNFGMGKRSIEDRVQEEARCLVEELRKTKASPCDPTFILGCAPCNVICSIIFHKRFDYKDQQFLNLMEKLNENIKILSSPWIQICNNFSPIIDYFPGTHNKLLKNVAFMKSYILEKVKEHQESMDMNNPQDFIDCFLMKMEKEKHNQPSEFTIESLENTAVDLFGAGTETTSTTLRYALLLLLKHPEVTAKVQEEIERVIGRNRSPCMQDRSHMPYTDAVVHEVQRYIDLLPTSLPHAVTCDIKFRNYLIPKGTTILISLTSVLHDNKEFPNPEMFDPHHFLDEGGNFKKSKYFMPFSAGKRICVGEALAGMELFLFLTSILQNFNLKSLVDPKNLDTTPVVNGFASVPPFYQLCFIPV
Chain of CYP3A4 (P08684 whole entry): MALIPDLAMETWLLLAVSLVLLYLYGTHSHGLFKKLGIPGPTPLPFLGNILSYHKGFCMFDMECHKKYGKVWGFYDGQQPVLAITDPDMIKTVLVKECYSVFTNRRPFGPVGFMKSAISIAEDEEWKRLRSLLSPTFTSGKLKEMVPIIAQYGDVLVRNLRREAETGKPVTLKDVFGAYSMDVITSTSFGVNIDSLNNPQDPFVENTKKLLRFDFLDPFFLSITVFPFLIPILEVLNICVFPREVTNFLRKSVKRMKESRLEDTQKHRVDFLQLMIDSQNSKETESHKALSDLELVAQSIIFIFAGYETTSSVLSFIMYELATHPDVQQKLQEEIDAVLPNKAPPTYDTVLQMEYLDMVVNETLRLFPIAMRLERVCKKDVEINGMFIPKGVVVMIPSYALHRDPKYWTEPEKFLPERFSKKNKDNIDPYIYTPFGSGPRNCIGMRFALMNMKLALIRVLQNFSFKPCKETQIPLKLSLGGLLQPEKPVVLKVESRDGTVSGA
Chain of CYP2C19 (P33261 whole entry): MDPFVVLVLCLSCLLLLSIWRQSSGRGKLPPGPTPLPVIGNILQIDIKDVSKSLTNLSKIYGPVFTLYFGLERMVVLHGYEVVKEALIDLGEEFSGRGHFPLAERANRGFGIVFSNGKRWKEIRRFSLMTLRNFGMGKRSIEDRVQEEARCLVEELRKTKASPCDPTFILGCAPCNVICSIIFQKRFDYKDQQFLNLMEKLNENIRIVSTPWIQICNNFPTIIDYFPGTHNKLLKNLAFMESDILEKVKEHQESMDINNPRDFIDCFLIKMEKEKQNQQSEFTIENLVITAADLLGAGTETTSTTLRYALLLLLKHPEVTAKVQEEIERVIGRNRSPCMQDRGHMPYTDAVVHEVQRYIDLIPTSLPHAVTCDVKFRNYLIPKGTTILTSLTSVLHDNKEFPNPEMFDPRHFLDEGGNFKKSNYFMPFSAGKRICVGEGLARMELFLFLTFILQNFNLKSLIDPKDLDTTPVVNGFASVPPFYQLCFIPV
Chain of CYP2D6 (P10635 whole entry): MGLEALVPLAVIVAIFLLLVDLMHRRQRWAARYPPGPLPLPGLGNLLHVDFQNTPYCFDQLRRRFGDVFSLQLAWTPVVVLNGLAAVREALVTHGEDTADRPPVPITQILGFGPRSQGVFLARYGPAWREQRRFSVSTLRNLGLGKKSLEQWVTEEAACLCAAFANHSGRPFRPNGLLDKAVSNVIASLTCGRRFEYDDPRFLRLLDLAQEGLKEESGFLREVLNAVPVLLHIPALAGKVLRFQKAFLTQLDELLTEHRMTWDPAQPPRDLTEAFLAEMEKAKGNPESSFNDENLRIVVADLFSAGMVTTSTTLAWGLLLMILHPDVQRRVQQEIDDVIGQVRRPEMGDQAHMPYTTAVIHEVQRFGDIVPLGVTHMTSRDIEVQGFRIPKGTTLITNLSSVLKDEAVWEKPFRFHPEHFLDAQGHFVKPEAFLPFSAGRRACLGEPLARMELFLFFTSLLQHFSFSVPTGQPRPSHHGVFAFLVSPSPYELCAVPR

c1cc2ccc3cccc4ccc(c1)c2c34 [pyrene]
CYP enzyme activity
Settings	CYP1A2	CYP2B6	CYP2C8	CYP2C9	CYP2C19	CYP2D6	CYP3A4
1 µM, treatment time 12 h	1.18	1.1	1.01	0.925	0.893	0.973	0.912
1 µM, treatment time 24 h	1.15	1.42	1.04	1.07	1.04	0.894	0.91
1 µM, treatment time 48 h	1.07	1.3	1.07	1.18	1.16	0.996	0.931
5 µM, treatment time 12 h	1.32	1.41	0.921	0.982	1.06	1.07	0.987
5 µM, treatment time 24 h	1.42	2.27	1.07	1.08	1.06	1.04	1.01
5 µM, treatment time 48 h	1.28	2.75	1.1	1.14	1.15	0.942	1.07
10 µM, treatment time 12 h	1.31	1.33	0.924	0.914	1.02	1.11	0.916
10 µM, treatment time 24 h	1.57	2.4	1.14	1.08	1.18	1.2	1.21
10 µM, treatment time 48 h	1.52	3.6	1.15	1.45	1.3	1.12	1.32

c1ccc2c(c1)cc1ccc3cccc4ccc2c1c34 [benzo[a]pyrene]
CYP enzyme activity
Settings	CYP1A2	CYP2B6	CYP2C8	CYP2C9	CYP2C19	CYP2D6	CYP3A4
1 µM, treatment time 12 h	2.02	0.982	0.886	0.945	0.898	1.11	0.849
1 µM, treatment time 24 h	1.3	1.14	0.925	1	0.895	0.883	0.812
1 µM, treatment time 48 h	0.816	0.753	0.895	0.896	0.85	0.691	0.734
5 µM, treatment time 12 h	7.75	1.22	0.671	0.85	0.908	2.43	1.04
5 µM, treatment time 24 h	4.55	1.61	0.774	1.03	0.847	1.07	0.834
5 µM, treatment time 48 h	1.04	0.977	0.686	0.773	0.855	0.598	0.678
10 µM, treatment time 12 h	5.63	0.881	0.464	0.67	0.761	2.24	1.05
10 µM, treatment time 24 h	7.76	1.52	0.66	0.872	0.835	1.34	0.762
10 µM, treatment time 48 h	1.24	0.954	0.415	0.654	0.661	0.51	0.599

c1ccc2c(c1)-c1cccc3cccc-2c13 [fluoranthene]
CYP enzyme activity
Settings	CYP1A2	CYP2B6	CYP2C8	CYP2C9	CYP2C19	CYP2D6	CYP3A4
1 µM, treatment time 12 h	1.01	1.2	1.01	1.02	0.972	0.989	0.901
1 µM, treatment time 24 h	0.943	1.58	1.06	1.09	0.974	0.981	0.98
1 µM, treatment time 48 h	1.07	2.05	1.14	1.18	1.1	0.91	1.03
5 µM, treatment time 12 h	1.33	1.35	0.987	1.17	1.09	1.16	1.01
5 µM, treatment time 24 h	1.09	2.28	1.07	1.3	1.16	1.11	1.16
5 µM, treatment time 48 h	1.27	3.59	1.14	1.34	1.26	1.06	1.28
10 µM, treatment time 12 h	1.41	1.25	0.988	1.15	0.999	1.18	1
10 µM, treatment time 24 h	1.07	2.01	1.04	1.11	0.995	1.08	1.03
10 µM, treatment time 48 h	1.312	3.74	1.2	1.39	1.22	1.06	1.35

c1ccc2c(c1)ccc1ccccc12 [phenanthrene]
CYP enzyme activity
Settings	CYP1A2	CYP2B6	CYP2C8	CYP2C9	CYP2C19	CYP2D6	CYP3A4
1 µM, treatment time 12 h	0.969	1.02	0.995	1.02	0.946	0.961	0.891
1 µM, treatment time 24 h	0.862	1.18	1.01	1.05	0.961	0.97	0.828
1 µM, treatment time 48 h	0.839	1.15	1.01	1.06	0.981	0.879	0.844
5 µM, treatment time 12 h	1.04	1.25	0.991	1.08	1.06	1.08	0.961
5 µM, treatment time 24 h	1.18	1.98	1.05	1.27	1.15	1.19	1.1
5 µM, treatment time 48 h	1.09	2.15	1.08	1.23	1.16	1.05	1.1
10 µM, treatment time 12 h	1.1	1.12	0.995	1.03	0.985	1.03	0.928
10 µM, treatment time 24 h	1.06	1.75	1.04	1.17	1.11	0.986	0.994
10 µM, treatment time 48 h	1.11	2.29	1.08	1.34	1.17	1.03	1.11

c1ccc2c(c1)cc1ccc3cccc4c5ccccc5c2c1c34 [dibenzo[a,l]pyrene]
CYP enzyme activity
Settings	CYP1A2	CYP2B6	CYP2C8	CYP2C9	CYP2C19	CYP2D6	CYP3A4
1 µM, treatment time 12 h	2.04	0.84	1	0.921	0.768	1.11	0.927
1 µM, treatment time 24 h	1.35	0.906	0.987	0.918	0.823	0.798	0.778
1 µM, treatment time 48 h	0.763	0.735	0.78	0.804	0.763	0.552	0.619
5 µM, treatment time 12 h	1.61	0.611	0.644	0.753	0.741	1.28	0.768
5 µM, treatment time 24 h	2.27	1.19	0.714	0.89	0.781	0.791	0.672
5 µM, treatment time 48 h	0.603	0.584	0.326	0.472	0.53	0.288	0.385
10 µM, treatment time 12 h	0.515	0.313	0.627	0.395	0.469	1.19	0.543
10 µM, treatment time 24 h	1.39	1.22	0.639	0.732	0.689	0.789	0.471
10 µM, treatment time 48 h	0.286	0.354	0.166	0.233	0.257	0.212	0.118

c1ccc2c3c(ccc2c1)-c1cccc2cccc-3c12 [benzo[j]fluoranthene]
CYP enzyme activity
Settings	CYP1A2	CYP2B6	CYP2C8	CYP2C9	CYP2C19	CYP2D6	CYP3A4
1 µM, treatment time 12 h	3.57	1.02	0.921	0.852	0.86	1.28	0.809
1 µM, treatment time 24 h	2.09	1.27	0.903	0.88	0.826	0.87	0.702
1 µM, treatment time 48 h	1.1	0.856	0.974	0.835	0.948	0.759	0.666
5 µM, treatment time 12 h	6.59	1.21	0.894	0.826	0.97	1.94	0.883
5 µM, treatment time 24 h	12.1	2.01	0.779	0.844	0.9	1.61	0.728
5 µM, treatment time 48 h	4.57	1.32	0.798	0.734	0.882	0.711	0.694
10 µM, treatment time 12 h	1.21	1.04	0.785	0.731	0.84	1.13	0.916
10 µM, treatment time 24 h	23	2.03	0.751	0.771	0.867	2.94	0.715
10 µM, treatment time 48 h	9.96	1.83	0.688	0.75	0.914	0.838	0.636
